Measured values: patent publication US20220127576A1, “COMPOSITIONS AND METHODS FOR STEM CELL THERAPY” (Arizona Board of Regents on Behalf of the University of …, priority 2019, published 2022)
Entries after “also recorded” stand apart in the source; their conditions may differ.

Columns and labels:
[1] = tested on: lymphocytes, lymphocyte subtypes and CD34+ HSCs in whole blood; assay: Lymphocyte subtypes and CD34+ HSCs in whole blood at rest and during ISO infusion before and after G-CSF treatment; format: in vivo, human
Source text: Values are the mean (n=7; 3 females).
This graft phenotype is predictive of improved clinical outcomes post alloHSCT, including lower incidence/severity of GvHD and viral infections, better engraftment and a lower incidence of relapse (Table 1).

[2] = Heart rate, blood pressure and tolerance during ISO infusion; format: in vivo, human; conditions: ISO 50 ng/kg/min, before and after 5-days G-CSF (5 mcg/kg/day); n=3
Source text: Research Design: Scientific Rigor is maintained through the use of a randomized, complete cross-over, double blind placebo controlled experimental design (above table). This design allows participants to act as their own controls, thus minimizing variability and the impact of potential between-subject confounders. Healthy volunteers report to the lab on six separate occasions at the same time of day. During Visit 1, they undergo an extensive screening procedure to ensure that they meet the study inclusion/exclusion criteria. A blood sample is drawn to determine CMV serostatus (positive or negative) and MR haplotype (A or B), which is included as co-variates in the analysis. Participants then complete six trials on separate days (Visit 2-7) with 7-days interspersed between each trial. During each of these visits, subjects are infused with 50 ng/kg/min of ISO (5 visits) or saline (1 visit) for 30-minutes. Blood samples are drawn before and during the last 10-minutes of the 30-minute infusion protocol. Participants are given orally administered drugs or placebo as a single dose within a few hours prior to ISO infusion. Participants are assigned to trial order using a block randomization scheme with random block sizes of between 2 and 4 subjects to obtain a balanced sample of 8 subjects per trial sequence order (see Statistical Power and Analysis section below). The randomization list is used to create sealed envelopes that are opened to determine assignment to drug order group after visit 1, with the trial order blinded to both the investigators and the participants.

[3] = tested on: lymphocytes, lymphocyte subtypes and CD34+ HSCs in whole blood; assay: Lymphocyte subtypes and CD34+ HSCs in whole blood at rest and during ISO infusion before and after G-CSF treatment; format: in vivo, human; conditions: for Absolute number of B cells in whole blood / Absolute number of CD3+ T cells in whole blood / Absolute number of CD4+ T cells in whole blood / Absolute number of CD8+ T cells in whole blood / Absolute number of CD34+ HSCs in whole blood / Absolute number of CM CD4+ T cells in whole blood / Absolute number of CM CD8+ T cells in whole blood / Absolute number of EM CD4+ T cells in whole blood / Absolute number of EM CD8+ T cells in whole blood / Absolute number of EMRA CD4+ T cells in whole blood / Absolute number of EMRA CD8+ T cells in whole blood / Absolute number of NK cells in whole blood / Absolute number of Naïve CD4+ T cells in whole blood / Absolute number of Naïve CD8+ T cells in whole blood / Absolute number of lymphocytes (Lymph.) in whole blood / Absolute number of αβ T cells in whole blood / Absolute number of γδ T cells in whole blood: mean, n = 3
[4] = tested on: lymphocytes, lymphocyte subtypes and CD34+ HSCs in whole blood; conditions: ISO dose of 50 ng/kg/min, healthy subjects, literature; cited from earlier work
[5] = ISO dose of 50 ng/kg/min, literature; cited from earlier work
[6] = tested on: leukemia and multiple myeloma target cells; assay: In vitro anti-tumor (cytotoxic) activity of mobilized PBHC grafts; format: cell-based, human; conditions: compared to rest / G-CSF only
Source text: Moreover, cytotoxic activity against leukemia and multiple myeloma target cells in vitro was 2-fold greater in the G-CSF+ISO PBHC grafts compared to G-CSF alone. […] Accordingly, in some embodiments, provided herein are compositions and methods for mobilizing stem cells with enhanced properties for use in allogenic or autologous transfers.
(§1) This was largely explained by a shift in the composition of NK-cells and TCR-γδ cells. […] The effects of systemic β-AR activation on the mobilization and ex vivo expansion of VSTs and TCR-γδ cells were β2-AR mediated as the effects were diminished by administering nadolol but not bisoprolol prior to systemic β-AR activation (FIG. 6).

[7] = oral, literature; cited from earlier work
[8] = tested on: VSTs specific to CMV, EBV and adenovirus antigens; assay: Mobilization of viral-specific T-cells (IFN-γ ELISpot and IFN-γ capture assays) with systemic β-AR activation; format: in vivo, human; conditions: healthy humans (n=11)
Source text: Difference from the resting condition indicated by *, p<0.05. Difference from the placebo and bisoprolol trials indicated by #, p<0.05.

[9] = tested on: lymphocyte composition in blood; assay: β-AR antagonists / PDE-4 inhibitor given prior to systemic β-AR activation (dynamic exercise): lymphocyte composition and heart rate; format: in vivo, human; conditions: antagonist administered prior to systemic β-AR activation (dynamic exercise model)
Method: Baseline samples were collected before drug/placebo administration and again 3 h later (pre-exercise).
To determine the β-AR subtype involved, a selective β1-AR antagonist (bisoprolol) and non-selective β1+β2-AR antagonist (nadolol) were administered prior to systemic β-AR activation (using dynamic exercise as an experimental model).

[10] = tested on: VSTs and TCR-γδ cells; assay: Mobilization and ex vivo expansion of VSTs and TCR-γδ cells after systemic β-AR activation; format: cell-based, human; conditions: antagonist administered prior to systemic β-AR activation
Source text: as §1

[11] = ISO infusion 50 ng/kg/min, before and after 5-days G-CSF (5 mcg/kg/day), n=7
[12] = after G-CSF mobilization, healthy volunteers
[13] = Post G-CSF, during ISO infusion

Molecule: CC(C)NCC(O)c1ccc(O)c(O)c1 (centres unmarked) [ISO, isoproterenol]
- composition of CD4+ TCR-αβ cells and B-cells among total blood lymphocytes [1, 11]: lowers
- numbers of CD34 HSCs in peripheral blood / graft [1, 12]: increases; also recorded: without compromising
- systolic hypertension [2]: ~30 mmHg
- tachycardia [2]: ~50 bpm
- tolerance to ISO infusion [2]: excellent tolerance
- composition of NK-cells and TCR-γδ cells among total blood lymphocytes [3, 11]: markedly increases
- Absolute number of B cells in whole blood [3, 13]: 392 cells/ul
- Absolute number of CD3+ T cells in whole blood [3, 13]: 2933 cells/ul
- Absolute number of CD4+ T cells in whole blood [3, 13]: 1835 cells/ul
- Absolute number of CD8+ T cells in whole blood [3, 13]: 795 cells/ul
- Absolute number of CD34+ HSCs in whole blood [3, 13]: 92 cells/ul
- Absolute number of CM CD4+ T cells in whole blood [3, 13]: 298 cells/ul
- Absolute number of CM CD8+ T cells in whole blood [3, 13]: 41 cells/ul
- Absolute number of EM CD4+ T cells in whole blood [3, 13]: 429 cells/ul
- Absolute number of EM CD8+ T cells in whole blood [3, 13]: 342 cells/ul
- Absolute number of EMRA CD4+ T cells in whole blood [3, 13]: 220 cells/ul
- Absolute number of EMRA CD8+ T cells in whole blood [3, 13]: 184 cells/ul
- Absolute number of NK cells in whole blood [3, 13]: 2068 cells/ul
- Absolute number of Naïve CD4+ T cells in whole blood [3, 13]: 886 cells/ul
- Absolute number of Naïve CD8+ T cells in whole blood [3, 13]: 227 cells/ul
- Absolute number of lymphocytes (Lymph.) in whole blood [3, 13]: 6730 cells/ul
- Absolute number of αβ T cells in whole blood [3, 13]: 2253 cells/ul
- Absolute number of γδ T cells in whole blood [3, 13]: 214 cells/ul
- Absolute number of B cells in whole blood ([3]; Pre G-CSF, during ISO infusion): 100 cells/ul
- Absolute number of CD3+ T cells in whole blood ([3]; Pre G-CSF, during ISO infusion): 924 cells/ul
- Absolute number of CD4+ T cells in whole blood ([3]; Pre G-CSF, during ISO infusion): 489 cells/ul
- Absolute number of CD8+ T cells in whole blood ([3]; Pre G-CSF, during ISO infusion): 329 cells/ul
- Absolute number of CD34+ HSCs in whole blood ([3]; Pre G-CSF, during ISO infusion): 6 cells/ul
- Absolute number of CM CD4+ T cells in whole blood ([3]; Pre G-CSF, during ISO infusion): 137 cells/ul
- Absolute number of CM CD8+ T cells in whole blood ([3]; Pre G-CSF, during ISO infusion): 34 cells/ul
- Absolute number of EM CD4+ T cells in whole blood ([3]; Pre G-CSF, during ISO infusion): 80 cells/ul
- Absolute number of EM CD8+ T cells in whole blood ([3]; Pre G-CSF, during ISO infusion): 114 cells/ul
- Absolute number of EMRA CD4+ T cells in whole blood ([3]; Pre G-CSF, during ISO infusion): 13 cells/ul
- Absolute number of EMRA CD8+ T cells in whole blood ([3]; Pre G-CSF, during ISO infusion): 81 cells/ul
- Absolute number of NK cells in whole blood ([3]; Pre G-CSF, during ISO infusion): 778 cells/ul
- Absolute number of Naïve CD4+ T cells in whole blood ([3]; Pre G-CSF, during ISO infusion): 257 cells/ul
- Absolute number of Naïve CD8+ T cells in whole blood ([3]; Pre G-CSF, during ISO infusion): 99 cells/ul
- Absolute number of lymphocytes (Lymph.) in whole blood ([3]; Pre G-CSF, during ISO infusion): 2043 cells/ul
- Absolute number of αβ T cells in whole blood ([3]; Pre G-CSF, during ISO infusion): 830 cells/ul
- Absolute number of γδ T cells in whole blood ([3]; Pre G-CSF, during ISO infusion): 91 cells/ul
- ratio of 'favorable' to 'unfavorable' lymphocyte subtypes in peripheral blood [3, 12]: alters
- mobilization of lymphocytes to the circulation [4]: robust mobilization
- safety for infusing healthy subjects [5]: safe
- in vitro anti-tumor activity of G-CSF mobilized PBHC grafts [6]: increases

Molecule: CC(C)NCC(O)COc1ccc(COCCOC(C)C)cc1 (centres unmarked) [bisoprolol]
- half-life [7]: 10 to 12 h
- effects of systemic β-AR activation on the mobilization of VSTs [8]: not
- effects of systemic β-AR activation on graft composition shifts [9]: remained favorably altered

Molecule: COc1ccccc1OCCNCC(O)COc1cccc2[nH]c3ccccc3c12 (centres unmarked) [carvedilol]
- half-life [7]: 7 to 10 h

Molecule: O=C(Nc1c(Cl)cncc1Cl)c1ccc(OC(F)F)c(OCC2CC2)c1 [roflumilast]
- half-life [7]: 15 to 18 h

Molecule: CC(C)(C)NCC(O)COc1cccc2c1CC(O)C(O)C2 (centres unmarked) [nadolol]
- half-life [7]: 14 to 24 h
- effects of systemic β-AR activation on the mobilization and ex vivo expansion of VSTs and TCR-γδ cells [10]: diminished
- effects of systemic β-AR activation on the mobilization of VSTs [8]: inhibits; also recorded: blocked
- effects of systemic β-AR activation on graft composition shifts [9]: not
- effects of systemic β-AR activation on graft composition shifts ([9]; listed as Nadolol): abrogated

B1: G-CSF: stem cell mobilization agent; filgrastim (G-CSF), 5 mcg/kg/day for 5 days (protein, chains of the INN, looked up)
chain: MTPLGPASSLPQSFLLKCLEQVRKIQGDGAALQEKLCATYKLCHPEELVLLGHSLGIPWAPLSSCPSQALQLAGCLSQLHSGLFLYQGLLQALEGISPELGPTLDTLQLDVADFATTIWQQMEELGMAPALQPTQGAMPAFASAFQRRAGGVLVASHLQSFLEVSYRVLRHLAQP
- Absolute number of B cells in whole blood ([3]; Post G-CSF, Rest): 456 cells/ul
- Absolute number of CD3+ T cells in whole blood ([3]; Post G-CSF, Rest): 2755 cells/ul
- Absolute number of CD4+ T cells in whole blood ([3]; Post G-CSF, Rest): 1749 cells/ul
- Absolute number of CD8+ T cells in whole blood ([3]; Post G-CSF, Rest): 786 cells/ul
- Absolute number of CD34+ HSCs in whole blood ([3]; Post G-CSF, Rest): 110 cells/ul
- Absolute number of CM CD4+ T cells in whole blood ([3]; Post G-CSF, Rest): 268 cells/ul
- Absolute number of CM CD8+ T cells in whole blood ([3]; Post G-CSF, Rest): 47 cells/ul
- Absolute number of EM CD4+ T cells in whole blood ([3]; Post G-CSF, Rest): 405 cells/ul
- Absolute number of EM CD8+ T cells in whole blood ([3]; Post G-CSF, Rest): 284 cells/ul
- Absolute number of EMRA CD4+ T cells in whole blood ([3]; Post G-CSF, Rest): 216 cells/ul
- Absolute number of EMRA CD8+ T cells in whole blood ([3]; Post G-CSF, Rest): 154 cells/ul
- Absolute number of NK cells in whole blood ([3]; Post G-CSF, Rest): 1158 cells/ul
- Absolute number of Naïve CD4+ T cells in whole blood ([3]; Post G-CSF, Rest): 860 cells/ul
- Absolute number of Naïve CD8+ T cells in whole blood ([3]; Post G-CSF, Rest): 302 cells/ul
- Absolute number of lymphocytes (Lymph.) in whole blood ([3]; Post G-CSF, Rest): 5866 cells/ul
- Absolute number of αβ T cells in whole blood ([3]; Post G-CSF, Rest): 2661 cells/ul
- Absolute number of γδ T cells in whole blood ([3]; Post G-CSF, Rest): 93 cells/ul
